Toxic doses and inconclusive results are not listed.

This assay concerns nude mice, LOX melanoma ip, survival T/C. The assay is described as follows: NCI In Vivo Anticancer Drug Screen. Data for tumor model Human Amelanotic Melanoma (LOX) (intraperitoneal) in NU/NU BALB/C (nude) mice. As to conditions: endpoint: median survival time, schedule: Q04DX003 (ip), higher = longer survival. The protocol: The antitumor activity of compounds was measured in mice bearing transplantable tumors. Survival or tumor size were measured and the results are expressed as the measurement made in the treated group (T) divided by the measurement made in the vehicle treated control group (C). The tumor model used in this assay is Human Amelanotic Melanoma (LOX) (intraperitoneal) in NU/NU BALB/C (nude) mice

As to `CC(=O)C[n+]1ccccc1Sc1ccc(Cl)cc1`, the T/C was 95 % of control (dose: 1.5 mg/kg/injection, vehicle: saline with Tween-80); 94 % of control (dose: 3.0 mg/kg/injection, vehicle: saline with Tween-80); 99 % of control (dose: 6.0 mg/kg/injection, vehicle: saline with Tween-80); 96 % of control (dose: 12.0 mg/kg/injection, vehicle: saline with Tween-80); 95 % of control (dose: 24.0 mg/kg/injection, vehicle: saline with Tween-80).

`COc1cc2c[n+](C)c3c(c2cc1OC)Cc1cc2c(cc1-3)OCO2`: the T/C reads like this: (dose: 18.75 mg/kg/injection, vehicle: saline with Tween-80) 108 % of control; (dose: 150.0 mg/kg/injection, vehicle: saline with Tween-80) 201 % of control.

In the case of `COC1=C(OC)C(=O)C(N(C)C)=C(CO)C1=O`, the T/C runs as follows: (dose: 25.0 mg/kg/injection, vehicle: saline) 116 % of control; (dose: 50.0 mg/kg/injection, vehicle: saline) 103 % of control; (dose: 100.0 mg/kg/injection, vehicle: saline) 104 % of control; (dose: 200.0 mg/kg/injection, vehicle: saline) 117 % of control.

The record behind these values is PubChem BioAssay AID280 (DTP/NCI, 2004).
